Converted amounts (≈) assume the structure as drawn. “And” between values parts separate entries of the source, which are not always exact repeats. Equal entries are not always repeated. Where two headings read alike, the source gives them in different places. Ends that are not written are not given here.
Experiments:
[1] = system: E. coli (KpC+ 2101123); conditions: for MIC in Cu(II) supplemented medium: Cu(II) supplemented medium (0.25 μM); for MIC: MH broth, 12 h, 37° C.
[2] = system: MRSA (3730529)
[3] = system: K. pneumoniae (ATCC13883)
[4] = system: K. pneumoniae (KpC+ 1825971); conditions: for MIC in Cu(II) supplemented medium: Cu(II) supplemented medium (0.25 μM); for MIC: MH broth, 12 h, 37° C.
[5] = system: K. pneumoniae (ATCC 13883)
[6] = system: E. coli (KpC+ 1812446); conditions: MH broth, 12 h, 37° C.
[7] = system: K. pneumoniae (ATCC13883); remark: listed apart in the source
[8] = system: P. aeruginosa (ATCC 27853)
[9] = system: E. coli (KpC1812446); conditions: Table 3, agent alone
[10] = system: S. aureus (ATCC 25923)
[11] = system: E. coli (KpC1812446); conditions: agent alone, BM2 minimal medium
[12] = system: E. coli (ATCC 25922)
[13] = system: E. coli (KpC1812446); assay: microbe, parasite or virus in culture; conditions: Escherichia coli
[14] = system: E. coli (KpC+1812446) biofilm; conditions: for MBIC Antibiotic alone / MBIC Antibiotic + Peptide: Table 7, biofilm; for FICI: Biofilm
[15] = system: E. coli (KpC+1812446) planktonic cells; conditions: for MBIC Antibiotic alone / MBIC Antibiotic + Peptide: Table 8, planktonic cells; for FICI: Planktonic
[16] = system: K. pneumoniae (ATCC13883); assay: microbe, parasite or virus in culture; conditions: Klebsiella pneumoniae
[17] = system: E. coli KpC+1812446; assay type: in vivo, mice; conditions: for in vivo toxicity: infected Balb/C mice, 5 and 10 mg·Kg^−1
Protocol: Male Balb/C (18-20 g) mice from the Biotério Central do Campus da USP in Ribeirão Preto, São Paulo, were kept in groups of 5 per cage at 22° C. with normal cycles of light and free access to food and water. The care and use of the animals were approved by the Ethics Committee of Universidade Católica Dom Bosco number 019/2016. We assessed the ability of the peptides to protect the mice from lethal systemic infections induced with E. coli KpC+1812446. The mice (n=40) were randomly placed into eight groups of five mice each, and each mouse was injected intraperitoneally with 200 μL of saline solution containing 2×10^7 CFU of E. coli KpC+1812446. Intraperitoneal treatment with 5 or 10 mg·Kg^−1 of each peptide was initiated after one hour of infection and repeated at 24 h intervals for seven days^61. Gentamicin at 10 mg·Kg^−1 of body weight and normal saline were used as positive and negative controls, respectively.

[18] = system: E. coli (ATCC25922); conditions: Table 3, agent alone
[19] = system: E. coli MG1655
[20] = system: E. coli (ATCC 25922); conditions: agent alone, BM2 minimal medium
[21] = system: K. pneumoniae (KpC1825971); conditions: Table 3, agent alone
[22] = system: K. pneumoniae (KpC1825971); conditions: agent alone, BM2 minimal medium
[23] = agent alone, BM2 minimal medium
[24] = antibiotic in combination with CM15
[25] = antibiotic in combination with GGH-CM15
[26] = antibiotic in combination with VIH-CM15
[27] = Cu(II) supplemented medium (0.25 μM)
[28] = Cu(II) in MH broth, determined in our laboratory

VIHGLFDVIKKVASVIGGL-NH2 [VIH-Citropin1.1]
MIC in Cu(II) supplemented medium [1]: 16 µM
MIC [1]: 16 µM
MIC ([2]; 3730529, 12 h): 16 µM
MBIC ([3]; ATCC13883): >33 µM
MIC in Cu(II) supplemented medium [4]: >33 µM
MIC [4]: >33 µM
MIC ([5]; ATCC 13883, 12 h): >33 µM
MIC [6]: 33 µM
MIC ([7]; ATCC13883): >33 µM
MIC ([8]; ATCC 27853, 12 h): >33 µM
MIC [9]: >33 µM
MIC in Cu(II) supplemented medium ([10]; ATCC 25923): 4 µM
MIC ([10]; ATCC 25923, 12 h): 4 µM
MBIC [11]: >33 µM
MIC in Cu(II) supplemented medium ([12]; ATCC 25922): >33 µM
MIC ([12]; ATCC 25922, 12 h): >33 µM

COc1cc(Cc2cnc(N)nc2N)cc(OC)c1OC [TRI, trimethoprim]
MIC [13]: > 220 µM
MBIC [3, 23]: >220 µM
MBIC Antibiotic alone [14]: 440 µM
MBIC Antibiotic + Peptide [14, 24]: 440 µM
MBIC Antibiotic + Peptide [14, 25]: 220 µM
MBIC Antibiotic + Peptide [14, 26]: 220 µM
MBIC Antibiotic alone [15]: 440 µM
MBIC Antibiotic + Peptide [15, 24]: 55 µM
MBIC Antibiotic + Peptide [15, 25]: 110 µM
MBIC Antibiotic + Peptide [15, 26]: 220 µM
MIC [16]: > 220 µM
MBIC [11]: >220 µM

CC1(C)S[C@@H]2[C@H](NC(=O)[C@H](N)c3ccccc3)C(=O)N2[C@H]1C(=O)O [AmP, ampicillin]
MIC [13]: > 183 µM
MBIC [3, 23]: >183 µM
MBIC Antibiotic alone [14]: 366 µM
MBIC Antibiotic + Peptide [14, 24]: 366 µM
MBIC Antibiotic + Peptide [14, 25]: 366 µM
MBIC Antibiotic + Peptide [14, 26]: 366 µM
MBIC Antibiotic alone [15]: 366 µM
MBIC Antibiotic + Peptide [15, 24]: 366 µM
MBIC Antibiotic + Peptide [15, 25]: 366 µM
MBIC Antibiotic + Peptide [15, 26]: 366 µM
MIC [16]: > 183 µM
MBIC [11]: >183 µM

[H]/N=C(/N)N[C@H]1[C@H](O)[C@@H](O)[C@H](O[C@@H]2O[C@@H](C)[C@](O)(C=O)[C@H]2O[C@@H]2O[C@@H](CO)[C@H](O)[C@@H](O)[C@@H]2NC)[C@@H](N/C(N)=N\[H])[C@@H]1O [STR, streptomycin]
MIC [13]: 14 µM (≈ 8.14 µg/mL)
MBIC [3, 23]: >110 µM
MBIC Antibiotic alone [14]: 14 µM
MBIC Antibiotic + Peptide [14, 24]: 4 µM
MBIC Antibiotic + Peptide [14, 25]: 4 µM
MBIC Antibiotic + Peptide [14, 26]: 7 µM
MBIC Antibiotic alone [15]: 14 µM
MBIC Antibiotic + Peptide [15, 24]: 4 µM
MBIC Antibiotic + Peptide [15, 25]: 14 µM
MBIC Antibiotic + Peptide [15, 26]: 0.4 µM
MIC [16]: > 110 µM
MBIC [11]: 14 µM

O=C(N[C@H](CO)[C@H](O)c1ccc([N+](=O)[O-])cc1)C(Cl)Cl [CHL, chloramphenicol]
MIC [13]: > 198 µM
MBIC [3, 23]: >198 µM
MBIC Antibiotic alone [14]: 396 µM
MBIC Antibiotic + Peptide [14, 24]: 396 µM
MBIC Antibiotic + Peptide [14, 25]: 396 µM
MBIC Antibiotic + Peptide [14, 26]: 396 µM
MBIC Antibiotic alone [15]: 396 µM
MBIC Antibiotic + Peptide [15, 24]: 0.8 µM
MBIC Antibiotic + Peptide [15, 25]: 3 µM
MBIC Antibiotic + Peptide [15, 26]: 0.8 µM
MIC [16]: > 198 µM
MBIC [11]: >198 µM

VIHKWKLFKKIGAVLKVL [VIH-CM15]
MIC in Cu(II) supplemented medium [1]: 2 µM
MIC [1]: 2 µM
MIC ([2]; MH broth, 12 h, 37° C.): 2 µM
in vivo toxicity [17]: decreased the toxicity of CM15
MBIC [3, 23]: >30 µM
FICI ([14]; peptide + AmP): 1.5
FICI ([14]; peptide + CHL): 1.38
FICI ([14]; peptide + MER): 0.185 and 0.19
FICI ([14]; peptide + STR): 1.0
FICI ([14]; peptide + TRI): 1.0
FICI ([15]; peptide + AmP): 2.0
FICI ([15]; peptide + CHL): 1.0 and 1.002
FICI ([15]; peptide + MER): 1.0
FICI ([15]; peptide + STR): 1.29
FICI ([15]; peptide + TRI): 1.0
MIC in Cu(II) supplemented medium [4]: 1 µM
MIC [4]: 1 µM
MIC [18]: 4 µM
MIC, TETA ([19]; cell-impermeable Cu(II) chelator triethylenetetramine (TETA) 200 μM): 1 µM
MIC, TTM ([19]; cell-permeable Cu(II) chelator tetrathiolmolybdate (TTM) 200 μM): 32 µM
MIC, No Chelator ([19]; no chelator): 0.5 µM
MIC ([5]; MH broth, 12 h, 37° C.): 1 µM
MIC [6]: 4 µM
MIC ([7]; Table 3, agent alone): 30 µM
MIC ([8]; MH broth, 12 h, 37° C.): 4 µM
MIC [9]: 4 µM
MBIC [20]: 4 µM
MIC in Cu(II) supplemented medium [10, 27]: 1 µM
MIC ([10]; MH broth, 12 h, 37° C.): 1 µM
MBIC [11]: 8 µM
MIC [21]: 8 µM
MBIC [22]: 4 µM
MIC in Cu(II) supplemented medium [12, 27]: 1 µM
MIC ([12]; MH broth, 12 h, 37° C.): 1 µM

GLFDVIKKVASVIGGL-NH2 [Citropin1.1, GLFDVIKKVASVIGGL-NH2, reference compound]
MIC in Cu(II) supplemented medium [1]: 5 µM
MIC [1]: 5 µM
MIC ([2]; 3730529, 12 h): 10 µM
MBIC ([3]; ATCC13883): >40 µM
MIC in Cu(II) supplemented medium [4]: 20 µM
MIC [4]: 20 µM
MIC ([5]; ATCC 13883, 12 h): 20 µM
MIC [6]: 10 µM
MIC ([7]; ATCC13883): >40 µM
MIC ([8]; ATCC 27853, 12 h): >40 µM
MIC [9]: >40 µM
MIC in Cu(II) supplemented medium ([10]; ATCC 25923): 3 µM
MIC ([10]; ATCC 25923, 12 h): 3 µM
MBIC [11]: >40 µM
MIC in Cu(II) supplemented medium ([12]; ATCC 25922): 10 µM
MIC ([12]; ATCC 25922, 12 h): 10 µM

GGHGLFDVIKKVASVIGGL-NH2 [GGH-Citropin1.1]
MIC in Cu(II) supplemented medium [1]: 9 µM
MIC [1]: 9 µM
MIC ([2]; 3730529, 12 h): 17 µM
MBIC ([3]; ATCC13883): >34 µM
MIC in Cu(II) supplemented medium [4]: >34 µM
MIC [4]: >34 µM
MIC ([5]; ATCC 13883, 12 h): 34 µM
MIC [6]: 34 µM
MIC ([7]; ATCC13883): >34 µM
MIC ([8]; ATCC 27853, 12 h): >34 µM
MIC [9]: >34 µM
MIC in Cu(II) supplemented medium ([10]; ATCC 25923): 9 µM
MIC ([10]; ATCC 25923, 12 h): 9 µM
MBIC [11]: >34 µM
MIC in Cu(II) supplemented medium ([12]; ATCC 25922): 34 µM
MIC ([12]; ATCC 25922, 12 h): 34 µM

C[C@@H](O)[C@H]1C(=O)N2C(C(=O)O)=C(S[C@@H]3CN[C@H](C(=O)N(C)C)C3)[C@H](C)[C@H]12 [MER, meropenem]
MIC [13]: 0.6 µM (≈ 0.23 µg/mL)
MBIC [3, 23]: >167 µM
MBIC Antibiotic alone [14]: 0.6 µM
MBIC Antibiotic + Peptide [14, 24]: 0.16 µM
MBIC Antibiotic + Peptide [14, 25]: 0.013 µM
MBIC Antibiotic + Peptide [14, 26]: 0.04 µM
MBIC Antibiotic alone [15]: 0.6 µM
MBIC Antibiotic + Peptide [15, 24]: 0.6 µM
MBIC Antibiotic + Peptide [15, 25]: 0.16 µM
MBIC Antibiotic + Peptide [15, 26]: 0.3 µM
MIC [16]: > 167 µM
MBIC [11]: 0.6 µM

O.O.O.O.O.O=S(=O)([O-])[O-].[Cu+2] [Cu(II) ions, CuSO4·5H2O]
toxic level [10, 28]: 7.8 mM
toxic level [12, 28]: 7.8 mM

KWKLFKKIGAVLKVL [CM15, KWKLFKKIGAVLKVL, reference compound]
mouse deaths ([17]; 10 mg·Kg^−1 intraperitoneal): led to mouse deaths after two days of treatment
in vivo toxicity [17]: high in vivo toxicity

Reference: US20260226105A1, “Antimicrobial And Antibiofilm Peptides Sequences With Metal-Binding Motifs” (The Trustee of the University of Pennsylvania, priority 2021, published 2026)
